A word on the Ki: it is the dissociation constant of the complex between target and ligand, obtained from inhibition or displacement. As usually defined, the IC50 is the concentration needed to halve the response being measured.

Some results are limits rather than exact numbers.

Data set [1] has as its system OVA-sensitized and challenged BALB/c mice. Put plainly: Inflammatory cells in BALF. Type of data set: in vivo, mouse. How it is done: (§1) Ten female BABL/c mice in each group were sensitized by an intraperitoneal (i.p.) injection of 20 μg of OVA emulsified in 2.25 mg aluminum hydroxide gel in a total volume of 100 μL on days 0 and 14. The mice were challenged via the airway by 1% OVA in saline for 30 min on Days 28, 29 and 30 by ultrasonic nebulization. Six weeks after the last of three primary OVA challenges, the mice were exposed to 1% OVA for 30 min by nebulization as a secondary challenge. AHR was assessed on Day 74 (48 h after 1% OVA provocation) in each group. […] For comparison, sham-treated mice were sensitized but challenged with saline instead of 1% OVA (non-challenged). The vehicle, a mixture of alcohol : DMSO : 30% HPβCD : saline (0.5 : 0.5 : 1 : 8 , v/v), or S-petasin was injected at a volume of 0.01 mL/g of body weight. AHR was measured in unrestrained animals by barometric plethysmography using a whole-body plethysmograph (WBP) and analyzed using software of Life Science Suite P3 Analysis Modules (Gould, LDS Test and Measurement LLC, Valley View, OH, USA). The mice were placed into the main chamber of the WBP, and the baseline enhanced pause (P enh) value was determined. Then the mice were nebulized first with phosphate-buffered saline (PBS), and subsequently with increasing doses (6.25–50 mg/mL) of MCh for 3 min for each nebulization, followed by readings of breathing parameters for 3 min after each nebulization with determination of P enh values. Twenty-four hours after the P enh determination, these mice were anesthetized with pentobarbital (50 mg/kg, i.p.), and lavaged via a tracheal tube with PBS (1 × 1.0 mL, 37°C). After lavage, blood was collected from the jugular vein and allowed to sit so that it would coagulate. The collected bronchoalveolar lavage fluid (BALF) and coagulated blood were, respectively, centrifuged at 630 g for 7 min and at 3700 g for 10 min at 4°C, respectively. After centrifugation, the supernatants of BALF and serum were stored at −20°C until the determinations of cytokines, including interleukin (IL)-2, IL-4, IL-5, tumor necrosis factor (TNF)-α and interferon (IFN)-γ by flow cytometric methods using mouse Th1/Th2 cytokine CBA kits, of total immunoglobulin E (IgE), and of total IgG2a using enzyme-linked immunosorbent assay (ELISA) kits (Pharmingen, San Diego, CA, USA) according to the respective recommendations of the manufacturer. OVA-specific IgE was measured as described previously with some modifications. Wells were coated with 100 μL of OVA (20 μg/mL) instead of the capture antibody. Levels are expressed in arbitrary units, where one arbitrary unit equals the optical density of the sample divided by the optical density of unchallenged mouse serum or BALF (standard). The pellet from BALF was re-suspended in ACK lysing buffer (1.658 g NH4Cl, 0.2 g KHCO3 and 1.44 mg EDTA in 200 mL of water) to lyse the residual erythrocytes in each sample. The number of inflammatory cells was counted using a hemocytometer (Hausser Scientific, Horsham, PA, USA). Cytospun slides were stained and differentiated in a blinded fashion by counting at least 100 cells under light microscopy.

Data set [2] shares this test system. As to the kind of experiment: IgG2a and IgE in serum and BALF (ELISA). The class given is in vivo, mouse. How it is done: as §1
A general note: An ELISA detects its analyte on a solid surface through an enzyme-linked reagent.

Data set [3] can be described thus: Solubility limit of S-petasin in the binding assay. The following applies: reaction buffer of binding assay, aqueous buffer; read-out: Highest attainable concentration owing to solubility. The class given is physicochemical.
Another data set concerns female BALB/c mice. As to the kind of experiment: Xylazine/ketamine-induced anesthesia. Type of data set: in vivo, mouse. The following applies: 10–100 μmol/kg s.c., 1 h before anesthesia. As for the experimental part:
According to the method described by Robichaud et al. and modified by us, S-petasin (10–100 μmol/kg, s.c.) or rolipram (0.01–1 μmol/kg, s.c.), a reference drug, was injected into 8–12 week-old female BALB/c mice 1 h or 15 min, respectively, prior to an i.p. injection of xylazine (10 mg/kg)/ketamine (70 mg/kg). The vehicle (control) for S-petasin or for rolipram was a mixture of alcohol : DMSO : 30% HPβCD : saline (0.5 : 0.5 : 1 : 8 , v/v), or alcohol : DMSO : PEG 400 : saline (0.5 : 0.5 : 1 : 8, v/v), respectively. After loss of the righting reflex (i.e., when a mouse remained on its back and no longer spontaneously righted itself to a prone position), the duration of anesthesia was measured until its return as an endpoint.

A further data set has as its target PDE3. As to the kind of experiment: Inhibition of PDE3 activity and Lineweaver-Burk analysis. Type of data set: biochemical, guinea pig. As for the experimental part: Activities of PDE1–5, partially separated from guinea pig lungs and hearts according to the method described by Ko et al., were measured with a two-step procedure according to the method of Thompson and Appleman, using cAMP with [^3H]-cAMP or cGMP with [^3H]-cGMP as substrates. The enzyme pμreparation (25 μL) was incubated for 30 min at 37°C in a total assay volume of […] containing 50 mM Tris-HCl (pH 7.4), 3 mM MgCl2, 1 mM dithiothreitol, 0.05% BSA, 1 μM cAMP with 0.2 μCi [^3H]-cAMP as a substrate alone or in the presence of 0.1 units calmodulin with 10 μM CaCl2 or 5 μM cGMP, and 1 μM cGMP with 0.2 μCi [^3H]-cGMP as another substrate alone or in the presence of 0.1 units calmodulin with 10 μM CaCl2. […] The reagents and homogenate were mixed on ice, and the reaction was initiated by transferring the mixture to a water bath at 37°C. Following a 30-min incubation, the reaction was stopped by transferring the reaction vessel to a bath of boiling water for 3 min. After cooling on ice, 20 μL of a 1 mg/mL solution of C. atrox snake venom was added to the reaction mixture, and the mixture was incubated at 37°C for 10 min. Unreacted [^3H]-cAMP or [^3H]-cGMP was removed by the addition of 500 μL of a 1-in-1 Tris-HCl (40 mM) buffer suspension of Dowex resin (1 × 8-200) with incubation on ice for 30 min. Each tube was then centrifuged for 2 min at 3700 g, and 150 μL of the supernatant was removed for liquid scintillation counting. […] The total protein in each fraction used was assayed according to the method described by Bradford. The PDE activities are shown as nmol/mg/min in the Lineweaver-Burk analysis.

Setting [4] is: 30 μmol/kg s.c., exception at 10 μmol/kg.

`C=C(C)[C@@H]1C[C@@]2(C)C(=CC1=O)CC[C@@H](OC(=O)/C=C\SC)[C@@H]2C` [S-Petasin]: the “Increase in lymphocytes in BALF” value in data set [1] (setting [4]) is recorded as “significantly suppressed”. Further, in data set [1] (10–30 μmol/kg s.c.), the “Increase in eosinophils in BALF” value is reported as “significantly suppressed”, the “Increase in neutrophils in BALF” value was “significantly suppressed”, the “Increase in total inflammatory cells in BALF” value is listed as “significantly suppressed” and the “Macrophages in BALF” value is “not affected”. Besides, in data set [2] (30 μmol/kg s.c.), the “Reduction of total IgG2a level in the serum” value is on record as “significantly reversed”. The “Enhancement of total IgE in the BALF” value in data set [2] (setting [4]) was “dose-dependently and significantly suppressed”. Also, in data set [2] (10–30 μmol/kg s.c.), the “Enhancement of OVA-specific IgE in the BALF” value is “dose-dependently and significantly suppressed”; the “Enhancement of OVA-specific IgE in the serum” value was “dose-dependently and significantly suppressed”; the “Enhancement of total IgE in the serum” value is “dose-dependently and significantly suppressed”. In addition, the solubility in data set [3] is at most 300 µM. The “Duration of xylazine/ketamine-induced anesthesia” value in the data set on female BALB/c mice was “did not affect”. Moreover, the Ki at PDE3 (Lineweaver-Burk analysis, cAMP substrate, read-out: Ki on PDE isozyme 3) was 25.3 ± 2 µM. Further, the “Mode of inhibition of PDE3 activity” value with PDE3 (Lineweaver-Burk analysis, S-petasin 3–30 μM, milrinone 0.3–3 μM) is reported as “competitively inhibited”. The concentration for half-maximal inhibition (IC50) in the data set with PDE3 (mean ± SEM (n), read-out: IC50 on PDE isozyme 3) stood at 25.5 ± 1.5 µM.

For the origin of these results see publication PMC3094704, “S-Petasin, the Main Sesquiterpene of Petasites formosanus, Inhibits Phosphodiesterase Activity and Suppresses Ovalbumin-Induced Airway Hyperresponsiveness” (Evidence-based Complementary and Alternative Medicine : eCAM, 2011).
